Experimental data: patent publication US20240180884A1, “PYRIDOSTIGMINE FOR USE IN THE TREATMENT OF COVID-19” (priority 2021, published 2024)

System: SARS-COV-2 infection (severe COVID-19)
Test: Randomized, parallel, double-blind, placebo-controlled clinical trial of oral pyridostigmine in adults hospitalized due to severe COVID-19
Type: in vivo, human
Details: for Primary outcome: Invasive mechanical ventilation or death - %: N = 94, day 28, placebo 23.4%; for Death - % (28-day case fatality): day 28, 60 mg/day orally, placebo 20.2%; for Discharge - % (probability of being discharged from the hospital within 28 days of randomization): placebo 79.8%
Protocol: The trial was conducted to reduce the incidence of mechanical ventilation or death in adults hospitalized due to severe COVID-19. A randomized, parallel, double-blind, placebo-controlled clinical trial was conducted. Participants were randomized (1:1 ratio) to receive oral pyridostigmine at a dose of 60 mg/day orally or an identical placebo (drug-grade starch) until the occurrence of any of the a priori specified outcomes, the hospital discharge or a maximum period of 14 days of hospital confinement, whichever comes first. The study was externally and independently watched and monitored by an independent Data and Security Monitoring Committee (DSMB). The study was conducted in two parts: an initial phase aimed at determining safety (from May 5 to Jul. 4, 2020) in which the first 44 participants were evaluated, followed by a part of a phase aimed at evaluating the effect, or lack thereof, of pyridostigmine in patients with severe COVID-19 (Jul. 5, 2020 to Jan. 30, 2021).
Adult hospitalized patients (>18 years) with confirmed SARS-COV-2 infection based on a positive RT-PCR test for SARS-COV-2 ribonucleic acid in a respiratory sample (nasopharyngeal or nasal swab) and a imaging study compatible with pneumonia, and at least one criterion of high risk of death.
Participants were randomized 1:1, with parallel allocation. Demographic information was collected from the participants at baseline, including age, sex, presence of comorbidities (including diabetes mellitus, hypertension, obesity, cardiovascular disease, lung disease or other chronic medical conditions). Participants who had already been discharged from the hospital by day 28 were contacted by phone to assess their vital and functional status.
Based on early evidence from China, an estimated 25% of patients hospitalized with severe SARS-COV-2 infection would develop complications that would lead to the need for invasive mechanical ventilation or death. Consequently, it is estimated that this sample size would allow us to identify with a power of 80% a reduction in the need for invasive mechanical ventilation or death of 10% in the group that received pyridostigmine compared to the group that received placebo, using a two-tailed […] at the significance level of 0.05. […] Based on the results of said analysis and with the data presented here, it was decided to terminate the study early.
The study was carried out at Instituto Nacional de Ciencias Médicas y Nutrición Salvador Zubirán (principal center) and Instituto Nacional de Cardiología Ignacio Chávez (recruiting center), two COVID-19 designated hospitals in Mexico City, Mexico.
An intention-to-treat analysis was performed comparing the proportion of outcomes between both therapeutic arms using the X^2 test. A multivariate logistic regression model was used to evaluate the variables associated with primary outcomes.

[1] = at the proposed dose of pyridostigmine (60 mg/day)
[2] = secondary outcome, 60 mg/day orally, N = 94

SMILES: CN(C)C(=O)Oc1ccc[n+](C)c1 [Pyridostigmine]
- Median time (IQR) from randomization to discharge (60 mg/day orally, N = 94): 5 days
- Rate of adverse events [1]: 5-6%
- Serious adverse effects [1]: no serious adverse effects reported
- Primary outcome: Invasive mechanical ventilation or death - % (hospitalized severe COVID-19 patients, 60 mg/day orally up to 14 days, p=0.03): (11.7) %
- Primary outcome: Invasive mechanical ventilation or death - % (hospitalized severe COVID-19 patients, 60 mg/day orally up to 14 days, p=0.03, listed as pyridostigmine): 11.7%
- Primary outcome: Invasive mechanical ventilation or death - no. (hospitalized severe COVID-19 patients, 60 mg/day orally up to 14 days, N = 94, intention to treat, day 28): 11
- Death after invasive mechanical ventilation (text, among ventilated patients) (placebo 57.1%, no difference between groups): 33.3%
- Risk index, 28-day case fatality (pyridostigmine vs. placebo, 95% CI 0.16 to 0.7, p=0.01): 0.33
- Hazard ratio, invasive mechanical ventilation or death on day 28 (pyridostigmine vs. placebo, 95% CI 0.24 to 0.94, p=0.03): 0.47
- Death after invasive mechanical ventilation - no. [2]: 2
- Invasive mechanical ventilation - % [2]: (6.4) %
- Invasive mechanical ventilation - no. [2]: 6
- Invasive mechanical ventilation - % (secondary outcome, 60 mg/day orally, N = 94, listed as pyridostigmine): 6.3%
- Death - no. (secondary outcome, before day 28, 60 mg/day orally, N = 94): 7
- Death - % (28-day case fatality) (secondary outcome, N = 94, p=0.01): (7.5) %
- Death - % (28-day case fatality) (secondary outcome, N = 94, p=0.01, listed as pyridostigmine): 7.4%
- Death after invasive mechanical ventilation - % (secondary outcome, percent of all N = 94): (2.1) %
- Discharge - no. (secondary outcome, within 28 days of randomization, N = 94): 87
- Discharge - % (probability of being discharged from the hospital within 28 days of randomization) (within 28 days of randomization, N = 94, p=0.01): (92.6) %
- Discharge - % (probability of being discharged from the hospital within 28 days of randomization) (within 28 days of randomization, N = 94, p=0.01, listed as pyridostigmine): 92.6%
